Here are results for 1 compound from article PMC6722837, “Multiple Modulation of Acid-Sensing Ion Channel 1a by the Alkaloid Daurisoline” (Biomolecules, 2019).

Structures are written as SMILES.

This experiment addresses T1, ASIC1a (acid-sensing ion channel 1a) (Rattus norvegicus, UniProt P55926).
T1 construct: gene Asic1; rat ASIC1a isoform expressed in Xenopus laevis oocytes
T1 sequence (P55926 1-526): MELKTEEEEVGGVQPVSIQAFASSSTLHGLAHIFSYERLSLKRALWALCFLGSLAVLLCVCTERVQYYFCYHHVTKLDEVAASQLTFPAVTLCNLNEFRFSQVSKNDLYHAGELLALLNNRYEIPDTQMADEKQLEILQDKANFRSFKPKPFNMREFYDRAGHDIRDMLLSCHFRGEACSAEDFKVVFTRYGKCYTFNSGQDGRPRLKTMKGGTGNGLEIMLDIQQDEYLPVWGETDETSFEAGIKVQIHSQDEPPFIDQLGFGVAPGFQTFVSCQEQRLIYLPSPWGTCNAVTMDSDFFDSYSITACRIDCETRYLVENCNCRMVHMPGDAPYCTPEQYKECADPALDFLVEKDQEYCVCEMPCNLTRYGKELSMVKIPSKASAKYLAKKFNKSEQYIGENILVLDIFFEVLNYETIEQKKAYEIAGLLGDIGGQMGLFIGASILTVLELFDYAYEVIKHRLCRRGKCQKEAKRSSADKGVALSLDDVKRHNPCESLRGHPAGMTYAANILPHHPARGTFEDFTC
The experiment is described as follows: two-electrode voltage clamp in Xenopus oocytes; second peak of the pH […].5-evoked current at conditioning pH […]. In kind it is cell-based. Background: Two-electrode voltage clamp is typically applied to oocytes expressing channels or transporters.

One may read the EC50 as the concentration that produces a half-maximal response. Read a high EC50 as a need for much substance. The compound `COc1cc2c(cc1O)[C@@H](Cc1ccc(O)c(Oc3ccc(C[C@@H]4c5cc(OC)c(OC)cc5CCN4C)cc3)c1)N(C)CC2` [DAU, daurisoline] showed an EC50 of 23 ± 3 µM.
